Laboratory results: patent US10294272B2, “Peptides with antagonistic activities against natural CXCR4” (Pharis Biotec GmbH, priority 2013, dated 2019)
Positions of bridges follow the written chain, without caps; N, C: chain ends. Residues, ends and D or L forms follow the SMILES beside them. Chains are numbered I, II in the order given. No end group written: not given here.

Test system: X4 tropic HIV-1 NL4-3
Conditions: blocking X4 tropic HIV-1 NL4-3 infection
Experimental: Antiviral screening was performed using the X4 HIV-1 NL4-3 molecular clone.
HIV-1, HIV-2 and SIV molecular clones differing in coreceptor tropism were generated by transient transfection of 293T cells with proviral DNA by the calcium phosphate method (CalPhos™ Mammalian Transfection Kit, Clon-tech). After overnight incubation, the transfection mixture was replaced by DMEM medium supplemented with 10% FCS, and virus stocks were harvested 48 hrs post-transfection. Subsequently, the culture supernatant was centrifuged for 5 min at 3000 rpm to remove cell debris. The resulting virus stock was quantified by p24 (HIV) or p27 (SIV) antigen ELISA. Virus stocks were either used immediately or stored in aliquots at −80° C.
TZM-bl reporter cells containing the LacZ reporter gene under the control of the HIV-1 promoter were seeded in 96-well F-bottom microtiter plates (Greiner Bio-One). On the following day, the cells were preincubated with various dilutions of the peptide of SEQ ID NO 16 or its derivatives for 1 hour and subsequently infected with HIV-1, HIV-2, and SIV. Infection rates were determined after 2 days using the one-step Tropix Gal-Screen Kit, as recommended by the manufacturer.

## CC[C@H](C)[C@H](N)C(=O)N[C@H](C(=O)N[C@@H](CCCNC(=N)N)C(=O)N[C@@H](Cc1ccc(O)cc1)C(=O)N[C@@H](CO)C(=O)N[C@@H](CCCCN)C(=O)N[C@@H](CCCCN)C(=O)N[C@H](C(=O)N1CCC[C@H]1C(=O)N[C@@H](CCC(N)=O)C(=O)N[C@@H](CSSC[C@H](NC(=O)[C@H](CCC(N)=O)NC(=O)[C@@H]1CCCN1C(=O)[C@@H](NC(=O)[C@H](CCCCN)NC(=O)[C@H](CCCCN)NC(=O)[C@H](CO)NC(=O)[C@H](Cc1ccc(O)cc1)NC(=O)[C@H](CCCNC(=N)N)NC(=O)[C@@H](NC(=O)[C@@H](N)[C@@H](C)CC)C(C)C)C(C)C)C(=O)O)C(=O)O)C(C)C)C(C)C [408I-418 SC x2, (IVRYSKKVPQC)2] (I: H-IVRYSKKVPQC-OH / II: H-IVRYSKKVPQC-OH; disulfide I:11-II:11; N-terminus and C-terminus assumed)
  IC50: 0.39 µM

## CC[C@H](C)[C@H](N)C(=O)N[C@H](C(=O)N[C@@H](CCCNC(=N)N)C(=O)N[C@@H](Cc1ccc(O)cc1)C(=O)N[C@H](C(=O)N[C@@H](CCCCN)C(=O)N[C@@H](CSSC[C@H](NC(=O)[C@H](CCCCN)NC(=O)[C@@H](NC(=O)[C@H](Cc1ccc(O)cc1)NC(=O)[C@H](CCCNC(=N)N)NC(=O)[C@@H](NC(=O)[C@@H](N)[C@@H](C)CC)C(C)C)[C@@H](C)O)C(=O)N[C@H](C(=O)N1CCC[C@H]1C(=O)N[C@@H](CCC(N)=O)C(=O)N[C@H](C(=O)N[C@@H](CO)C(=O)O)C(C)C)C(C)C)C(=O)N[C@H](C(=O)N1CCC[C@H]1C(=O)N[C@@H](CCC(N)=O)C(=O)N[C@H](C(=O)N[C@@H](CO)C(=O)O)C(C)C)C(C)C)[C@@H](C)O)C(C)C [408I-419 K414C x2, (IVRYTKCVPQVS)2] (I: H-IVRYTKCVPQVS-OH / II: H-IVRYTKCVPQVS-OH; disulfide I:7-II:7; N-terminus and C-terminus assumed)
  IC50: 1.05 µM

## CC[C@H](C)[C@H](N)C(=O)N[C@H](C(=O)N[C@@H](CCCNC(=N)N)C(=O)N[C@@H](Cc1ccc(O)cc1)C(=O)N[C@H](C(=O)N[C@@H](CCCCN)C(=O)N[C@@H](CCCCN)C(=O)N[C@H](C(=O)N1CCC[C@H]1C(=O)N[C@@H](CCC(N)=O)C(=O)N[C@@H](CSSC[C@H](NC(=O)[C@H](CCC(N)=O)NC(=O)[C@@H]1CCCN1C(=O)[C@@H](NC(=O)[C@H](CCCCN)NC(=O)[C@H](CCCCN)NC(=O)[C@@H](NC(=O)[C@H](Cc1ccc(O)cc1)NC(=O)[C@H](CCCNC(=N)N)NC(=O)[C@@H](NC(=O)[C@@H](N)[C@@H](C)CC)C(C)C)[C@@H](C)O)C(C)C)C(=O)N[C@@H](CO)C(=O)O)C(=O)N[C@@H](CO)C(=O)O)C(C)C)[C@@H](C)O)C(C)C [408I-419 V418C x2, (IVRYTKKVPQCS)2] (I: H-IVRYTKKVPQCS-OH / II: H-IVRYTKKVPQCS-OH; disulfide I:11-II:11; N-terminus and C-terminus assumed)
  IC50: 0.46 µM

## CC[C@H](C)[C@H](N)C(=O)N[C@H](C(=O)N[C@@H](CCCNC(=N)N)C(=O)N[C@@H](Cc1c[nH]c2ccccc12)C(=O)N[C@H](C(=O)N[C@@H](CCCCN)C(=O)N[C@@H](CCCCN)C(=O)N[C@H](C(=O)N1CCC[C@H]1C(=O)N[C@@H](CCC(N)=O)C(=O)N[C@H](C(=O)N[C@@H](CSSC[C@H](NC(=O)[C@@H](NC(=O)[C@H](CCC(N)=O)NC(=O)[C@@H]1CCCN1C(=O)[C@@H](NC(=O)[C@H](CCCCN)NC(=O)[C@H](CCCCN)NC(=O)[C@@H](NC(=O)[C@H](Cc1c[nH]c2ccccc12)NC(=O)[C@H](CCCNC(=N)N)NC(=O)[C@@H](NC(=O)[C@@H](N)[C@@H](C)CC)C(C)C)[C@@H](C)O)C(C)C)C(C)C)C(=O)O)C(=O)O)C(C)C)C(C)C)[C@@H](C)O)C(C)C [408I-419 WC01_x2, (IVRWTKKVPQVC)2] (I: H-IVRWTKKVPQVC-OH / II: H-IVRWTKKVPQVC-OH; disulfide I:12-II:12; N-terminus and C-terminus assumed)
  IC50: 0.4 µM

## CC[C@H](C)[C@H](N)C(=O)N[C@H](C(=O)N[C@@H](CCCNC(=N)N)C(=O)N[C@@H](Cc1c[nH]c2ccccc12)C(=O)N[C@H](C(=O)N[C@@H](CSSC[C@H](NC(=O)[C@@H](NC(=O)[C@H](Cc1c[nH]c2ccccc12)NC(=O)[C@H](CCCNC(=N)N)NC(=O)[C@@H](NC(=O)[C@@H](N)[C@@H](C)CC)C(C)C)[C@@H](C)O)C(=O)N[C@@H](CCCCN)C(=O)N[C@H](C(=O)N1CCC[C@H]1C(=O)N[C@@H](CCC(N)=O)C(=O)N[C@H](C(=O)N[C@@H](CO)C(=O)O)C(C)C)C(C)C)C(=O)N[C@@H](CCCCN)C(=O)N[C@H](C(=O)N1CCC[C@H]1C(=O)N[C@@H](CCC(N)=O)C(=O)N[C@H](C(=O)N[C@@H](CO)C(=O)O)C(C)C)C(C)C)[C@@H](C)O)C(C)C [408I-419 WC02 x2, (IVRWTCKVPQVS)2] (I: H-IVRWTCKVPQVS-OH / II: H-IVRWTCKVPQVS-OH; disulfide I:6-II:6; N-terminus and C-terminus assumed)
  IC50: 0.32 µM

## CC[C@H](C)[C@H](N)C(=O)N[C@H](C(=O)N[C@@H](CCCNC(=N)N)C(=O)N[C@@H](Cc1c[nH]c2ccccc12)C(=O)N[C@@H](CSSC[C@H](NC(=O)[C@H](Cc1c[nH]c2ccccc12)NC(=O)[C@H](CCCNC(=N)N)NC(=O)[C@@H](NC(=O)[C@@H](N)[C@@H](C)CC)C(C)C)C(=O)N[C@@H](CCCCN)C(=O)N[C@@H](CCCCN)C(=O)N[C@H](C(=O)N1CCC[C@H]1C(=O)N[C@@H](CCC(N)=O)C(=O)N[C@H](C(=O)N[C@@H](CO)C(=O)O)C(C)C)C(C)C)C(=O)N[C@@H](CCCCN)C(=O)N[C@@H](CCCCN)C(=O)N[C@H](C(=O)N1CCC[C@H]1C(=O)N[C@@H](CCC(N)=O)C(=O)N[C@H](C(=O)N[C@@H](CO)C(=O)O)C(C)C)C(C)C)C(C)C [408I-419 WC03 x2, (IVRWCKKVPQVS)2] (I: H-IVRWCKKVPQVS-OH / II: H-IVRWCKKVPQVS-OH; disulfide I:5-II:5; N-terminus and C-terminus assumed)
  IC50: 0.6 µM

## CC[C@H](C)[C@H](N)C(=O)N[C@H](C(=O)N[C@@H](CCCNC(=N)N)C(=O)N[C@@H](Cc1c[nH]c2ccccc12)C(=O)N[C@@H](CO)C(=O)N[C@@H](CCCCN)C(=O)N[C@@H](CCCCN)C(=O)N[C@H](C(=O)N1CCC[C@H]1C(=O)N[C@@H](CCC(N)=O)C(=O)N[C@@H](CSSC[C@H](NC(=O)[C@H](CCC(N)=O)NC(=O)[C@@H]1CCCN1C(=O)[C@@H](NC(=O)[C@H](CCCCN)NC(=O)[C@H](CCCCN)NC(=O)[C@H](CO)NC(=O)[C@H](Cc1c[nH]c2ccccc12)NC(=O)[C@H](CCCNC(=N)N)NC(=O)[C@@H](NC(=O)[C@@H](N)[C@@H](C)CC)C(C)C)C(C)C)C(=O)N[C@@H](CO)C(=O)O)C(=O)N[C@@H](CO)C(=O)O)C(C)C)C(C)C [408I-419 WSC01 x2, (IVRWSKKVPQCS)2] (I: H-IVRWSKKVPQCS-OH / II: H-IVRWSKKVPQCS-OH; disulfide I:11-II:11; N-terminus and C-terminus assumed)
  IC50: 0.18 µM

## CC[C@H](C)[C@H](N)C(=O)N[C@H](C(=O)N[C@@H](CCCNC(=N)N)C(=O)N[C@@H](Cc1c[nH]c2ccccc12)C(=O)N[C@@H](CO)C(=O)N[C@@H](CCCCN)C(=O)N[C@@H](CCCCN)C(=O)N[C@H](C(=O)N1CCC[C@H]1C(=O)N[C@@H](CSSC[C@H](NC(=O)[C@@H]1CCCN1C(=O)[C@@H](NC(=O)[C@H](CCCCN)NC(=O)[C@H](CCCCN)NC(=O)[C@H](CO)NC(=O)[C@H](Cc1c[nH]c2ccccc12)NC(=O)[C@H](CCCNC(=N)N)NC(=O)[C@@H](NC(=O)[C@@H](N)[C@@H](C)CC)C(C)C)C(C)C)C(=O)N[C@H](C(=O)N[C@@H](CO)C(=O)O)C(C)C)C(=O)N[C@H](C(=O)N[C@@H](CO)C(=O)O)C(C)C)C(C)C)C(C)C [408I-419 WSC02 x2, (IVRWSKKVPCVS)2] (I: H-IVRWSKKVPCVS-OH / II: H-IVRWSKKVPCVS-OH; disulfide I:10-II:10)
  IC50: 0.12 µM

## IVHYTKKVPQVS [408I-419 R410H, IVHYTKKVPQVS]
  IC50: > 100 µM

## IVKYTKKVPQVS [408I-419 R410K, IVKYTKKVPQVS]
  IC50: > 100 µM

## IVRFTKKVPQVS [408I-419 Y411F, IVRFTKKVPQVS]
  IC50: 3.89 µM

## IVRSTKKVPQVS [408I-419 Y411S, IVRSTKKVPQVS]
  IC50: > 100 µM

## IVRWCKKVPQVS [408I-419 WC03, IVRWCKKVPQVS]
  IC50: 1.82 µM

## IVRWSKKVCQVS [408I-419 WSC03, IVRWSKKVCQVS]
  IC50: 1.51 µM

## IVRWSKKVPCVS [408I-419 WSC02, IVRWSKKVPCVS]
  IC50: 0.31 µM

## IVRWSKKVPQCS [408I-419 WSC01, IVRWSKKVPQCS]
  IC50: 0.87 µM

## IVRWTCKVPQVS [408I-419 WCO2, IVRWTCKVPQVS]
  IC50: 2.1 µM

## IVRWTKKVPQVC [408I-419 WC01, IVRWTKKVPQVC]
  IC50: 1.65 µM

## IVRWTKKVPQVS [408I-419 Y411W, IVRWTKKVPQVS]
  IC50: 1.54 µM

## IVRYSKKVPQC [408I-418 SC, IVRYSKKVPQC]
  IC50: 2.94 µM

## IVRYSKKVPQVS [408I-419 T412S, IVRYSKKVPQVS]
  IC50: 2.09 µM

## IVRYTKCVPQVS [408I-419 K414C, IVRYTKCVPQVS]
  IC50: 5.87 µM

## IVRYTKKVPQCS [408I-419 V418C, IVRYTKKVPQCS]
  IC50: 3.69 µM

## IVRYTKKVPQVS [Derivative 408I-419, IVRYTKKVPQVS]
  IC50: 2.48 µM

## LARYTKKV [408-415-V409A, LARYTKKV]
  IC50: 32.9 µM

## LLVRYTKKVPQVS [Derivative 407-419, LLVRYTKKVPQVS]
  IC50: 11.1 µM

## LVRYAKKV [408-415-T412A, LVRYAKKV]
  IC50: 11.2 µM

## LVRYTKKV [Derivative 408-415, LVRYTKKV]
  IC50: 25.7 µM

## LVRYTKKVPQ [Derivative 408-417, LVRYTKKVPQ]
  IC50: 19.8 µM

## LVRYTKKVPQV [Derivative 408-418, LVRYTKKVPQV]
  IC50: 26.8 µM
